The text below walks through data of patent EP1203770A1 (priority 1992, dated 1994).

For this test, the target named is T1, HIV-1 protease (Human immunodeficiency virus type 1 group M subtype B, UniProt P04585).
T1 construct: The protease (or proteinase), consisting of only 99 amino acids, is among the smallest enzymes known
The test is described as follows: In vitro HIV protease inhibitory assay (HIV Protease FITC Assay). It counts as biochemical. As to conditions: for inhibition at 0.123 µM / inhibition at 0.37 µM / inhibition at 1.1 µM / inhibition at 3.3 µM / inhibition at 10 µM / inhibition at 30 µM / inhibition at 0.41 µM / inhibition at 1.23 µM / inhibition at 3.7 µM / inhibition at 11 µM / inhibition at 33 µM / inhibition at 100 µM / inhibition at 1 µM: read-out: HIV-1 Protease % Inhib; for inhibition at 0.41 µM: HIV-1 Dose 0.410 uM; for inhibition at 1.23 µM: HIV-1 Dose 1.230 uM; for inhibition at 3.7 µM: HIV-1 Dose 3.700 uM; for inhibition at 11 µM: HIV-1 Dose 11.000 uM; for inhibition at 33 µM: HIV-1 Dose 33.000 uM. The procedure:
The HIV protease screening assay is based on a fluorescently labeled substrate which can be resolved from nonlabeled cleavage product using avidin-polystyrene particles, 0.7-0.9 µm. The substrate is biotinylated at the amino terminal arginine and fluorescently labeled with fluorescein isothiocynate (FITC) at the carboxyl terminal lysine. […] Substrate (20 µl of 0.2 µM), sample (10 µl of desired concentraion), and enzyme (10 µl of 0.1 µM) are added to a 96 well pandex plate. The assay is run in 0.1 M sodium acetate buffer at pH 5.5 in the presence of 1.0 M sodium chloride and 0.05% NP-40 and incubated in the dark for one hour at room temperature. Avidin coated polystyrene beads {40 µl of 0.1% (w/v)} are added and the incubation is continued in the dark for an additional half hour. The labeled cleavage product is separated from the unreacted substrate via filtration and is read on the Idexx Screen Machine. The data are analyzed by appropriate computer algorithms to ascertain percent inhibition values.

By Ki is commonly meant the equilibrium dissociation constant of an inhibitor or competing ligand from its target. The IC50 is the concentration that gives 50% inhibition.

“And” between values parts separate entries of the source, which are not always exact repeats. Equal entries are not always repeated. Where two headings read alike, the source gives them in different places.

On to `CCC(Cc1ccccc1)c1cc(O)c(C(c2cccc(NC(=O)Cc3ccncc3)c2)C2CC2)c(=O)o1` (stereo not drawn) [Example 249, 3-(α-Cyclopropyl-meta-(4-pyridylacetylamino)benzyl)-6-(α-ethylphenethyl)-4-hydroxy-2H-pyran-2-one], for which affinity was put at a Ki of 0.0444 µM, the inhibition at 0.123 µM is less than 10%, the inhibition at 0.37 µM is 40% and the inhibition at 1.1 µM is 70.3%. In addition, the inhibition at 3.3 µM worked out at 88.5%, the inhibition at 10 µM came to 103% and the inhibition at 30 µM stood at 107%.
On to `O=c1oc(CCCC(F)(F)F)cc(O)c1C(c1ccccc1)C1CC1` (stereo not shown) [Example 118, 3-(Cyclopropyl-phenyl-methyl)-4-hydroxy-6-(4,4,4-trifluoro-butyl)-pyran-2-one], for which, where the note is “HIV-1 Dose 0.123 uM”, the inhibition at 0.123 µM is less than 10%. Moreover, the inhibition at 0.37 µM (HIV-1 Dose 0.370 uM) is less than 10%. The inhibition at 1.1 µM (HIV-1 Dose 1.100 uM) was 20%. Further, under “HIV-1 Dose 3.300 uM”, the inhibition at 3.3 µM is 52.4%. In addition, the inhibition at 10 µM (HIV-1 Dose 10.000 uM) came to 83.9%. Besides, the inhibition at 30 µM (HIV-1 Dose 30.000 uM) was determined as 102%.
`CCC(Cc1ccccc1)c1cc(O)c(C(c2cccc(NC(=O)[C@H](C)NC(=O)OC(C)(C)C)c2)C2CC2)c(=O)o1` (stereo partly drawn) [Example 221, 3-(α-Cyclopropyl-meta-(tert-butyloxycarbonyl-L-alanylamino)benzyl)-6-(α-ethylphenethyl)-4-hydroxy-2H-pyran-2-one]: the inhibition at 0.123 µM (HIV-1 Dose 0.123 uM) was found to be 43.1%. Moreover, where the note is “HIV-1 Dose 0.370 uM”, the inhibition at 0.37 µM was 72.1%. Where the note is “HIV-1 Dose 1.100 uM”, the inhibition at 1.1 µM was 87.3%. Moreover, the inhibition at 3.3 µM (HIV-1 Dose 3.300 uM) came out at 102%. Besides, the inhibition at 10 µM (HIV-1 Dose 10.000 uM) came out at 108%. Further, where the note is “HIV-1 Dose 30.000 uM”, the inhibition at 30 µM is 101%. Moreover, the inhibition constant Ki (read-out: HIV-1 FITC Ki) was found to be 0.0146 µM.
As for `O=c1oc(CCc2ccc3ccccc3n2)cc(O)c1C(c1ccccc1)C1CC1` (stereo not shown) [Example 51, 3-(Cyclopropyl-phenyl-methyl)-4-hydroxy-6-(2-quinolin-2-yl-ethyl)-pyran-2-one], the inhibition at 0.41 µM was less than 10%, the inhibition at 1.23 µM was less than 10%, the inhibition at 3.7 µM came to 23.4% and the inhibition at 11 µM stood at 50.7%. The inhibition at 33 µM is 70%. The inhibition at 100 µM (HIV-1 Dose 100.000 uM) stood at 83.7%.
Turning to `O=c1oc(C(Cc2ccccc2)CC2CC2)cc(O)c1C(c1ccccc1)C1CC1` (stereo not shown) [Example 88, 6-(1-Benzyl-2-cyclopropyl-ethyl)-3-(cyclopropyl-phenyl-methyl)-4-hydroxy-pyran-2-one], the inhibition at 1 µM (HIV-1 Dose 1.000 uM) is 46.2%. Also, where the note is “HIV-1 Dose 10.000 uM”, the inhibition at 10 µM is 60.8%. Besides, the inhibition at 100 µM (HIV-1 Dose 100.000 uM) turned out to be 95.1%.
In the case of `CCC(Cc1ccccc1)c1cc(O)c(C(c2cccc(NS(=O)(=O)c3ccc(Br)cc3)c2)C2CC2)c(=O)o1` (stereo not drawn) [Example 181, 3-(α-Cyclopropyl-meta-(4-bromophenylsulfonylamino)benzyl)-6-(α-ethylphenethyl)-4-hydroxy-2H-pyran-2-one], the inhibition at 0.123 µM (HIV-1 Dose 0.123 uM) worked out at 32.6%. Besides, the inhibition at 0.37 µM (HIV-1 Dose 0.370 uM) was determined as 64.5%. The inhibition at 1.1 µM (HIV-1 Dose 1.100 uM) is 82.4%. Also, for the setting “HIV-1 Dose 3.300 uM”, the inhibition at 3.3 µM is 95.3%. Further, under “HIV-1 Dose 10.000 uM”, the inhibition at 10 µM was 101%. The inhibition at 30 µM (HIV-1 Dose 30.000 uM) came out at 95.5%. In addition, the Ki (read-out: HIV-1 FITC Ki) came out at 0.0189 µM.
`CCC(c1ccccc1)c1c(O)cc(CCCc2ccccc2)oc1=O` (stereo not drawn) [Example 8, 3-(α-ethylbenzyl)-4-hydroxy-6-(3-phenylpropyl)-2H-Pyran-2-one] showed an IC50 of 3.9 µM. In addition, the inhibition at 1 µM (HIV-1 Dose 1.000 uM) was 15.8%. The inhibition at 10 µM (HIV-1 Dose 10.000 uM) was 79%. Also, where the note is “HIV-1 Dose 100.000 uM”, the “HIV-1 Protease % Inhib” value turned out to be 97% and the inhibition at 100 µM turned out to be 96.6%.
Regarding `C=CC(C1=C(O)CC2(CCOCC2)OC1=O)c1ccccc1` (stereo not shown) [Example 121, 4-Hydroxy-3-(1-phenyl-allyl)-1,9-dioxa-spiro[5.5]undec-3-en-2-one], under “HIV-1 Dose 0.123 uM”, the inhibition at 0.123 µM was less than 10%. Further, for the setting “HIV-1 Dose 0.370 uM”, the inhibition at 0.37 µM is less than 10%. Moreover, under “HIV-1 Dose 1.100 uM”, the inhibition at 1.1 µM was less than 10%. Also, the inhibition at 3.3 µM (HIV-1 Dose 3.300 uM) amounted to 10.8%. For the same compound, for the setting “HIV-1 Dose 10.000 uM”, the inhibition at 10 µM worked out at 40.2%. For the same compound, where the note is “HIV-1 Dose 30.000 uM”, the inhibition at 30 µM is 68.5%.
As for `CCC(C1=C(O)CC(c2ccccc2)(C2CCCCC2)OC1=O)c1cccc(O)c1` (stereo not shown) [Example 31, 5,6-Dihydro-4-hydroxy-6-cyclohexyl-6-phenyl-3-[1-(3-hydroxyphenyl)propyl]-2H-pyran-2-one], the affinity, expressed as Ki, was 0.61 µM; the inhibition at 1 µM is 18.7%; the inhibition at 10 µM amounted to 81%; the inhibition at 100 µM was found to be 86%.
As for `CCC(C1=C(O)CC2(CCC(=O)CC2)OC1=NO)c1ccccc1` (stereo not shown) [Example 123, 4-Hydroxy-3-(1-phenyl-propyl)-1-oxa-spiro[5.5]undec-3-ene-2,9-dione monooxime], the inhibition at 0.123 µM (HIV-1 Dose 0.123 uM) is less than 10%. The inhibition at 0.37 µM (HIV-1 Dose 0.370 uM) was less than 10%. Where the note is “HIV-1 Dose 1.100 uM”, the inhibition at 1.1 µM is less than 10%. Also, the inhibition at 3.3 µM (HIV-1 Dose 3.300 uM) is 14.8%. Besides, the inhibition at 10 µM (HIV-1 Dose 10.000 uM) worked out at 39.6%. The inhibition at 30 µM (HIV-1 Dose 30.000 uM) amounted to 72%.
Take `CCCS(=O)(=O)Nc1cccc(C(c2c(O)cc(C(CC)Cc3ccccc3)oc2=O)C2CC2)c1` (stereo not drawn) [Example 179, 3-(α-Cyclopropyl-meta-(propylsulfonylamino)benzyl)-6-(α-etylphenethyl)-4-hydroxy-2H-pyran-2-one]: the inhibition at 0.123 µM (HIV-1 Dose 0.123 uM) was 23.7%. For the setting “HIV-1 Dose 0.370 uM”, the inhibition at 0.37 µM came out at 61.9%. For the same compound, the inhibition at 1.1 µM (HIV-1 Dose 1.100 uM) worked out at 77.9%. Moreover, the inhibition at 3.3 µM (HIV-1 Dose 3.300 uM) was 94.4%. Under “HIV-1 Dose 10.000 uM”, the inhibition at 10 µM came out at 95.1%. For the setting “HIV-1 Dose 30.000 uM”, the inhibition at 30 µM worked out at 102%. For the same compound, under “read-out: HIV-1 FITC Ki”, the Ki was 0.04 µM.
Turning to `CCCCC1(Cc2ccccc2)CC(O)=C(C(CCc2ccccc2)c2ccccc2)C(=O)O1` (stereo not shown) [Example 218, 2H-Pyran-2-one, 6-butyl-5,6-dihydro-3-(1,3-diphenylpropyl)-4-hydroxy-6-phenylmethyl-], under “HIV-1 Dose 0.123 uM”, the inhibition at 0.123 µM is less than 10%. Moreover, the inhibition at 0.37 µM (HIV-1 Dose 0.370 uM) is less than 10%. Also, the inhibition at 1.1 µM (HIV-1 Dose 1.100 uM) is 21.2%. Also, the inhibition at 3.3 µM (HIV-1 Dose 3.300 uM) was 46%. Moreover, where the note is “HIV-1 Dose 10.000 uM”, the inhibition at 10 µM worked out at 59.3%. In addition, the inhibition at 30 µM (HIV-1 Dose 30.000 uM) came out at 58.2%.
Take `CC(C)CC1(CCc2ccccc2)CC(O)=C(C(CCc2ccccc2)c2ccccc2)C(=O)O1` (stereo not shown) [Example 211]: the “HIV-1 Protease % Inhib” value runs as follows: (HIV-1 Dose 0.123 uM) less than 10%; (HIV-1 Dose 0.370 uM) 21.39%; (HIV-1 Dose 1.100 uM) 47.29%; (HIV-1 Dose 3.300 uM) 66.35%; (HIV-1 Dose 10.000 uM) 89.15%; (HIV-1 Dose 30.000 uM) 92.11%. For the same compound, the Ki (read-out: HIV-1 FITC Ki) worked out at 0.064 µM.
Turning to `CCC(CC1OCCO1)c1cc(O)c(C(c2ccccc2)C2CC2)c(=O)o1` (stereo not shown) [Example 60, 3-(Cyclopropyl-phenyl-methyl)-6-(1-(1,3)dioxolan-2-ylmethyl-propyl)-4-hydroxy-pyran-2-one], the inhibition at 0.41 µM was 63.2%, the inhibition at 1.23 µM stood at 86.7%, the inhibition at 3.7 µM came out at 106% and the inhibition at 11 µM was determined as 113%. The inhibition at 33 µM came out at 111%. The inhibition at 100 µM (HIV-1 Dose 100.000 uM) came out at 123%. Also, the Ki (read-out: HIV-1 FITC Ki) was 0.046 µM.
Turning to `CCC(Cc1ccccc1)c1cc(O)c(C(c2cccc(NC(=O)[C@H](Cc3c[nH]cn3)NC(=O)OC(C)(C)C)c2)C2CC2)c(=O)o1` (stereo partly drawn) [Example 226, 3-(α-Cyclopropyl-meta-(N-α-tert-butyloxycarbonyl-L-histidylamino)benzyl)-6-(α-ethylphenethyl)-4-hydroxy-2H-pyran-2-one], the inhibition at 0.123 µM is 73.4%, the inhibition at 0.37 µM is 93.9%, the inhibition at 1.1 µM was 106% and the inhibition at 3.3 µM was 104%. Besides, the inhibition at 10 µM was determined as 101% and the inhibition at 30 µM came to 98.3%. Besides, where the note is “read-out: HIV-1 FITC Ki”, the Ki was determined as 0.004 µM.
On to `CCC(CC1CCOC1)c1cc(O)c(C(c2ccccc2)C2CC2)c(=O)o1` (stereo not shown) [Example 45, 3-(Cyclopropyl-phenyl-methyl)-4-hydroxy-6-(1-(tetrahydro-furan-3-ylmethyl)-propyl)-pyran-2-one], for which the inhibition at 0.41 µM is 79.3%, the inhibition at 1.23 µM turned out to be 94.4%, the inhibition at 3.7 µM was 101% and the inhibition at 11 µM was found to be 103%. Further, the inhibition at 33 µM came out at 114%. Further, the inhibition at 100 µM (HIV-1 Dose 100.000 uM) turned out to be 116%. In addition, the Ki (read-out: HIV-1 FITC Ki) amounted to 0.053 µM.
In the case of `O=c1oc(C(CC2CC2)CC2CC2)cc(O)c1C(c1ccccc1)C1CC1` (stereo not shown) [Example 81], the “HIV-1 Protease % Inhib” value is 41.76% (HIV-1 Dose 1.000 uM); 76.98% (HIV-1 Dose 10.000 uM); 83.48% and 83.5% (HIV-1 Dose 100.000 uM); less than 10% (dose not given). For the same compound, the Ki (read-out: HIV-1 FITC Ki) is 0.031 µM.
